Source: article PMC6838142, “Nano-Antagonist Alleviates Inflammation and Allows for MRI of Atherosclerosis” (Nanotheranostics, 2019)

Columns and labels:
[1] = test system: NLRP3 inflammasome; experiment: Inflammasome activation immunoblot in BMDMs; format: cell-based, mouse; conditions: LPS 50 ng/mL, nigericin 5 µM
Procedure: Immunoblotting was performed as previously described with the following modifications. Briefly, cell lysates were obtained in SDS lysis buffer consisting of 2% SDS, 50 mM Tris-HCl (pH 6.8), 100 mM DTT, 5% Ficoll 400, 0.0001% bromophenol blue and a cocktail of protease inhibitors. Lysates were sonicated on ice before heating at 97 °C for 7 min to completely denature the protein. Protein concentration was determined using IR spectroscopy (which is insensitive to high SDS and DTT concentrations) with a Millipore DirectDetect spectrometer. Lysates were equally loaded at 10-15 µg per lane on BioRad TGX Criterion gels (4-15%) and resolved at 300 V in Tris-Glycine running buffer. Proteins were transferred on nitrocellulose membranes using the BioRad TransBlot turbo according to the manufacturer's instructions. Membranes were blocked in fish serum (Aqua Block) or 5% nonfat dry milk in TBS-T (0.05% Tween 20) and probed overnight at 4 °C with primary antibodies as indicated in Supplementary Table S1. The membranes were washed in TBS-T and incubated with secondary antibodies for 1 h at room temperature. After washing, semi-quantitative visualization of the proteins of interest was enabled using an enhanced chemiluminescence reagent as previously described and the Azure C400 western blot imaging system.
BMDMs or J774 cells were plated in 48-well plates at 2 x 10^5 per well. Next day, the medium was changed to Opti-MEM (100 μL per well) without serum and the cells were allowed to equilibrate for 3 h. Next, the cells were pretreated with the indicated concentrations of nanoparticles or controls for 3 h followed by the addition of LPS to some wells to the final LPS concentration of 50 ng/mL. LPS priming continued for another 2 h, following which DMSO (vehicle), Nigericin (5 μM) or adenosine triphosphate (ATP) (1 mM) were added to some wells. Cells were incubated for an additional 30 min and cell culture supernatants were collected on ice. Cells were washed with cold PBS once and lysed/processed as described in immunoblotting section. […]

[2] = test system: NLRP3 inflammasome (J774 cells); experiment: Inflammasome activation immunoblot in J774 cells; format: cell-based, mouse; conditions: additional activator ATP 1 mM
Procedure: BMDMs or J774 cells were plated in 48-well plates at 2 x 10^5 per well. Next day, the medium was changed to Opti-MEM (100 μL per well) without serum and the cells were allowed to equilibrate for 3 h. Next, the cells were pretreated with the indicated concentrations of nanoparticles or controls for 3 h followed by the addition of LPS to some wells to the final LPS concentration of 50 ng/mL. LPS priming continued for another 2 h, following which DMSO (vehicle), Nigericin (5 μM) or adenosine triphosphate (ATP) (1 mM) were added to some wells. Cells were incubated for an additional 30 min and cell culture supernatants were collected on ice. Cells were washed with cold PBS once and lysed/processed as described in immunoblotting section. The supernatants (90 μL) were mixed with 10 μL of 10x SDS loading buffer (10% SDS, 10% Ficoll 400, 0.5 M Tris pH 6.8, 0.5 M DTT, and 0.001% bromophenol blue) and heat-denatured as described in the immunoblotting section. Supernatants were loaded at 45 μL per lane on Bio Rad TGX Criterion 12+2 gels (4-20%) and lysates were loaded at 15 μg per lane. Immunoblotting was performed as described above.
Supplementary Figure S10. Inflammasome activation assays in J774 cells. The cells were treated as described in Methods and main text Figure 5 legend, plus additional inflammasome activator ATP that was added at 1 mM. Immunoblot was performed as described in methods. […]

[3] = test system: RAW cells; experiment: Fluorescence microscopy of binding and uptake in RAW cells; format: cell-based, mouse
Source text: Figure 1 Screening identifies CCTV as an anti-inflammatory nanoparticle with high affinity for CC chemokine receptor 2. A) A screening of a small library of nanoparticles in lipopolysaccharide (LPS)-stimulated macrophage reporter cells (RAW-Blue) identified CCTV, which downregulates nuclear factor-kappa B (NF-κB) activity. Each point on the plot represents a relative activity of NF-κB (X-coordinate) and corresponding nanoparticle content per mg of cell protein (Y-coordinate) calculated from nanoparticle fluorescence. […] Dexamethasone (Dex) is an NF-κB inhibitor and was used as a positive control. Vehicle-treated and unstained (US) cells served as a negative control. B) CCTV binding to the cell surface was validated in RAW cells using fluorescence microscopy. The cells were stained at 4 °C or room temperature for 30 min with CCTV or vehicle nanoparticles (sudo-colored green). Lysosomes were visualized after staining with LAMP1 antibody (red). Nuclei were stained using Hoechst 33342 (blue). C) The uptake of CCTV was inhibited in the presence of 5 µM cytochalasin D (cyto D). DMSO served as vehicle control. Calcein AM was used for whole cell staining. D) CCTV binding to a receptor on the cell surface was studied by flow cytometry in the presence and absence of the excess (1 mM) of the free peptide. E) The Basic Local Alignment Search Tool (BLAST) analysis determined that CCTV peptide sequence repeats in mouse and human CC chemokine receptor family. Only the first 50 amino acids are shown. F) Chemical structure of CCTV and its mirror analog VTCC and their possible conjugation strategies that include N- (N-term.) and C-terminus (C-term.) as well as sulfhydryl attachment. […]
For a targeted nanotherapy to be effective, the nanoparticles must have affinity to a specific cell type, usually determined by cell surface binding. […] Thus, we used the mouse macrophage reporter cell line RAW-Blue that allowed for monitoring activity of Nuclear Factor-kappa B (NF-kB) and also enabled In vitro quantitation of nanoparticle binding to the cell surface. […]

[4] = test system: RAW cells

**Q.** Which results are given for CCTV?
**A.** IL-1β and its mature form in supernatants (immunoblot) [1]: dose-dependently inhibited the production of IL-1β and its mature form; NLRP3 protein [1]: markedly decreased, but only in nigericin-stimulated, CCTV-treated cells; cleaved caspase 1 levels [1]: reduced; inflammasome deactivation in J774 cells [2]: reproducible in J774 cells; uptake in presence of cytochalasin D ([3]; 5 µM cytochalasin D, DMSO vehicle control): inhibited; cell-surface binding at 4oC ([3]; RAW cells, 4 °C, 30 min, vs vehicle nanoparticles): rapidly bound to the cell surface; uptake at room temperature ([3]; RAW cells, room temperature, LAMP1 co-staining): mediated by endocytosis; toxicity of SH-conjugated nanoparticles [4]: very low toxicity
